Measurements taken from patent publication US20210255193A1, “LYSINE REACTIVE PROBES AND USES THEREOF” (The Scripps Research Institute, priority 2017, published 2021).

How the values were obtained:
Assay in all cases: competitive isoTOP-ABPP
[1] = biological target: T1, PSME3 Proteasome activator complex subunit 3 (Homo sapiens, UniProt P61289); type: binding; details: for R value (DMSO/fragment) for probe 1 labeling: 231 sol
T1 construct: isoTOP-ABPP experiments performed in cell lysates (in vitro); endogenous in cells; host or cells: soluble proteome of human cancer cell lines (MDA-MB-231, Ramos, Jurkat)
Experimental: (§1) In vitro covalent fragment treatment for isoTOP-ABPP. All compounds were made up as solutions in DMSO (100×) and were used at a final concentration of 50 μM for activated esters and 100 μM for guanidinylating agents. For each profiling sample, 0.5 ml of lysate was treated with 5 μl of the 100× compound stock solution or 5 μl of DMSO. Samples were treated with activated esters for
(§2) STP-alkyne labeling and click chemistry. For concentration-dependent reactivity measurements by isoTOP-ABPP, 0.5 ml proteome aliquots were treated at ambient temperature with 1 mM STP-alkyne 1 (5 μl of 100 mM stock in DMSO) and 0.1 mM STP alkyne 1 (5 μl of 10 mM stock in DMSO), respectively. For competitive isoTOP-ABPP, after in vitro fragment treatment (detailed above), the samples were labeled for 1 h at ambient temperature with 0.1 mM STP-alkyne 1 (5 μl of 10 mM stock in DMSO). Samples were conjugated by copper-mediated azide-alkyne cycloaddition (CuAAC) to either the light (1 mM STP-alkyne or fragment treated) or heavy (0.1 mM STP-alkyne or DMSO treated) TEV tags (10 μl of 5 mM stocks in DMSO, final concentration=100 μM) using tris(2-carboxyethyl)phosphine hydrochloride
(§3) R value calculation and processing. The ratios of light and heavy MS1 peaks for each unique peptide were quantified with a CIMAGE software using default parameters (3 MS1 acquisitions per peak and signal to noise threshold set to 2.5). For reactivity measurements by isoTOP-ABPP, the R value was calculated from the ratio of MS1 peak areas, comparing the 1 mM STP alkyne sample (light TEV tag) with the 0.1 mM STP alkyne sample (heavy TEV tag). For competitive isoTOP-ABPP, the R value was calculated from the ratio of MS1 peak areas, comparing the DMSO treated sample (heavy TEV tag) with the compound treated sample (light TEV tag). […] Ratios for unique peptide entries are calculated for each experiment; overlapping peptides with the same modified lysine (for example, different charge states, MudPIT chromatographic steps or tryptic termini) are grouped together and the median ratio is reported as the final ratio (R). The peptide ratios reported by CIMAGE were further filtered to ensure the removal or correction of low-quality ratios in each individual data set. The quality filters applied were the following: removal of half tryptic peptides; for ratios with high standard deviations from the median (90% of the median or above) the lowest ratio was taken instead of the median; removal of peptides with R=20 and only a single MS2 event triggered during the elution of the parent ion; manual annotation of all the peptides with ratios of 20, removing any peptides with low quality elution profiles that remained after the previous curation steps (only done for competitive isoTOP-ABPP).
(§4) Cross-data processing for fragment screening. For compound treated samples, biological replicates of the same condition were averaged, if the standard deviation was below 60% of the mean; otherwise, for lysines with at least one R value <4 for a particular compound, the lowest value of the ratio set was taken. For lysines, where all R values for a particular compound were ≥4, the average was reported. For peptides containing several possible modified lysines, the lysine with the highest number of quantification events was used for analysis and the remaining, redundant peptides were reported as alternative modification sites. Peptides included in the aggregate dataset (those used for further bioinformatics and statistical analyses) were required to have been quantified in 2 experiments for competitive isoTOP-ABPP. Lysines were categorized as liganded, if they had at least one ratio R≥4 (hit fragments). For liganded lysines with R=20 for all liganding events, lysines were required to have been quantified with R=20 in two separate experiments and were further required to have been quantified with R<20 in one additional experiment.

[2] = biological target: T2, TPMT Thiopurine S-methyltransferase (Homo sapiens, UniProt P51580); type: binding; details: for R value (DMSO/fragment) for probe 1 labeling: P51580_K32, 231 sol; for isoTOP-ABPP ratio, lysine P51580_K32: 50 uM_231_sol_in vitro
T2 construct: isoTOP-ABPP experiments performed in cell lysates (in vitro); endogenous in cells; host or cells: soluble proteome of human cancer cell lines (MDA-MB-231; Ramos and Jurkat also prepared)
T2 sequence (P51580 1-245): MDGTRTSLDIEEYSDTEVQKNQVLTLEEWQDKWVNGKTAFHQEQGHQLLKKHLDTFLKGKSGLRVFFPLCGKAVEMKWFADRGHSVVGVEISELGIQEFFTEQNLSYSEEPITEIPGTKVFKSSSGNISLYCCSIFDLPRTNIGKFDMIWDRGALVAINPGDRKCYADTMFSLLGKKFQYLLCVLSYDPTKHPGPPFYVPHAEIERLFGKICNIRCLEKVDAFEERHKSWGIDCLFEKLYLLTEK
Experimental: as §1, §2, §3, §4

[3] = biological target: T3, ABCE1 ATP-binding cassette sub-family E member 1 (Homo sapiens, UniProt P61221); details: for R value (DMSO/fragment) for probe 1 labeling / isoTOP-ABPP ratio (R) at liganded lysine P61221_K191 / isoTOP-ABPP ratio (R) at liganded lysine P61221_K478: 50 uM, in vitro; for R value (DMSO/fragment) for probe 1 labeling: 231 sol; for isoTOP-ABPP ratio (R) at liganded lysine P61221_K191 / isoTOP-ABPP ratio (R) at liganded lysine P61221_K478: sol, 231
T3 construct: isoTOP-ABPP experiments performed in cell lysates (in vitro); endogenous in cells; host or cells: soluble proteome of human cancer cell lines (MDA-MB-231, Ramos, Jurkat)
Experimental: as §1, §2, §3, §4

[4] = biological target: T4, AGFG1 Arf-GAP domain and FG repeat-containing protein 1 (Homo sapiens, UniProt P52594); type: binding; details: for R value (DMSO/fragment) for probe 1 labeling: P52594_K134, 231 sol
T4 construct: isoTOP-ABPP experiments performed in cell lysates (in vitro); endogenous in cells; host or cells: soluble proteome of human cancer cell lines (MDA-MB-231, Ramos, Jurkat)
T4 sequence (P52594 1-562): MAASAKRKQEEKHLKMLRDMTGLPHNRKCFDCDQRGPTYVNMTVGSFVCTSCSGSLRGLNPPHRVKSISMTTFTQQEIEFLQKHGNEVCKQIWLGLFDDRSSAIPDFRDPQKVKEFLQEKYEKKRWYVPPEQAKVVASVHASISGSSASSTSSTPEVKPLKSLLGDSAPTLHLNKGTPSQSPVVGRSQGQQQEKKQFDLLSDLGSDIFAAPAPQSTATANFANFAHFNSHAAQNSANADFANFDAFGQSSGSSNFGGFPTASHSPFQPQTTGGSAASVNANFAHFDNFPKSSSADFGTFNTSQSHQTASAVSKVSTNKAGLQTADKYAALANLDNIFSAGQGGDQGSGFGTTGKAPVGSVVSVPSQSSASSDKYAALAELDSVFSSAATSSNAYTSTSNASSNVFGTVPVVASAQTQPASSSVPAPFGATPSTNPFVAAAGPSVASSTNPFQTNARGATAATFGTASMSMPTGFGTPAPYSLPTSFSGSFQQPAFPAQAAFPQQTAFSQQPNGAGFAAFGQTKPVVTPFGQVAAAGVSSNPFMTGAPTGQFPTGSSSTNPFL
Experimental: as §1, §2, §3, §4

T1 sequence (P61289 whole entry, the tested form may be a part, one chain of several): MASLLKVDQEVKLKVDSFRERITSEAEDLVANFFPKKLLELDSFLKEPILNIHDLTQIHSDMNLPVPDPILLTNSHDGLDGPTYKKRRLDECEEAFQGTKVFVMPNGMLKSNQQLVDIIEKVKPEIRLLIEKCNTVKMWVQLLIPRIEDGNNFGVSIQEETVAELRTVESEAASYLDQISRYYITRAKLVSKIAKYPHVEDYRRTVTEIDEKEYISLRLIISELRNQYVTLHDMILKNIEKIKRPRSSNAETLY

| Structure (SMILES) | R value (DMSO/fragment) for probe 1 labeling ([1]; P61289_K12, 50 uM, in vitro) | R value (DMSO/fragment) for probe 1 labeling ([1]; P61289_K237, 50 uM, in vitro) | R value (DMSO/fragment) for probe 1 labeling ([2]; 50 uM, in vitro) | R value (DMSO/fragment) for probe 1 labeling ([3]; P61221_K191) | R value (DMSO/fragment) for probe 1 labeling ([3]; P61221_K478) | R value (DMSO/fragment) for probe 1 labeling ([4]; 50 uM, in vitro) | isoTOP-ABPP ratio, lysine P51580_K32 [2] | isoTOP-ABPP ratio, lysine P61221_K191 ([3]; 50 uM_231_sol_in vitro) | isoTOP-ABPP ratio, lysine P61221_K478 ([3]; 50 uM_231_sol_in vitro) | other results |
| --- | --- | --- | --- | --- | --- | --- | --- | --- | --- | --- |
| O=C(Oc1c(F)c(F)c(F)c(F)c1F)C(c1ccccc1)c1ccccc1 [fragment 20, Pentafluorophenyl 2,2-diphenylacetate] | 0.9 | 0.9 | 0.9 | 0.9 | 1.2 | 1.0 | – | – | – | – |
| Cn1cc(CC(=O)Oc2c(F)c(F)c(F)c(F)c2F)c2ccccc21 [fragment 22, Pentafluorophenyl 2-(1-methyl-1H-indol-3-yl)acetate] | 0.9 | 1.1 | 1.3 | 1.5 | 1.6 | 1.4 | – | – | – | – |
| O=C(Oc1ccc([N+](=O)[O-])cc1[N+](=O)[O-])c1ccc2ccccc2n1 [fragment 35, 2,4-Dinitrophenyl quinoline-2-carboxylate] | – | – | – | – | – | – | – | – | – | isoTOP-ABPP ratio (R) at liganded lysine P61289_K12 ([1]; 50 uM, in vitro, sol, 231): 0.7; isoTOP-ABPP ratio (R) at liganded lysine P61289_K237 ([1]; 50 uM, in vitro, sol, 231): 0.8; isoTOP-ABPP ratio (R) at liganded lysine P61221_K191 [3]: 1.1; isoTOP-ABPP ratio (R) at liganded lysine P61221_K478 [3]: 1.1 |
| CC(=O)Oc1ccc([N+](=O)[O-])cc1[N+](=O)[O-] [fragment 43, 2,4-Dinitrophenyl acetate] | – | – | – | – | – | – | – | – | – | isoTOP-ABPP ratio (R) at liganded lysine P51580_K32 ([2]; 50 uM, in vitro, sol, 231): 1.5; isoTOP-ABPP ratio (R) at liganded lysine P61221_K191 [3]: 1.3; isoTOP-ABPP ratio (R) at liganded lysine P61221_K478 [3]: 1.4; isoTOP-ABPP ratio (R) at liganded lysine P52594_K134 ([4]; 50 uM, in vitro, sol, 231): 4.8 |
| N#Cc1ccc(C(=O)Oc2ccc([N+](=O)[O-])cc2[N+](=O)[O-])cc1 [fragment 44, 2,4-Dinitrophenyl 4-cyanobenzoate] | – | – | – | – | – | – | 1.4 | 1.1 | 0.9 | isoTOP-ABPP ratio, lysine P52594_K134 ([4]; 50 uM_231_sol_in vitro): 1.5 |
| O=C(Oc1c(F)c(F)cc(F)c1F)c1cc(C(F)(F)F)cc(C(F)(F)F)c1 [fragment 48, 2,3,5,6-Tetrafluorophenyl 3,5-bis(trifluoromethyl)benzoate] | – | – | – | – | – | – | 4.4 | 1.0 | 1.1 | isoTOP-ABPP ratio, lysine P52594_K134 ([4]; 50 uM_231_sol_in vitro): 1.0 |
| COC(=O)NC(=NC(=O)OCC1c2ccccc2-c2ccccc21)n1cccn1 [fragment 49, N-Methoxycarbonyl-N′-9-fluorenylmethoxycarbonyl-pyrazole-1-carboxamidine] | – | – | – | – | – | – | – | – | – | isoTOP-ABPP ratio, lysine P61289_K12 ([1]; 100 uM_231_sol_in vitro): 0.8; isoTOP-ABPP ratio, lysine P61289_K237 ([1]; 100 uM_231_sol_in vitro): 0.8; isoTOP-ABPP ratio, lysine P61221_K191 ([3]; 100 uM_231_sol_in vitro): 20.0; isoTOP-ABPP ratio, lysine P61221_K478 ([3]; 100 uM_231_sol_in vitro): 1.0; isoTOP-ABPP ratio, lysine P52594_K134 ([4]; 100 uM_231_sol_in vitro): 0.8 |

Continued, in another order:

| R value (DMSO/fragment) for probe 1 labeling ([1]; P61289_K12, 50 uM, in vitro) | R value (DMSO/fragment) for probe 1 labeling ([1]; P61289_K237, 50 uM, in vitro) | R value (DMSO/fragment) for probe 1 labeling ([2]; 50 uM, in vitro) | R value (DMSO/fragment) for probe 1 labeling ([3]; P61221_K191) | R value (DMSO/fragment) for probe 1 labeling ([3]; P61221_K478) | R value (DMSO/fragment) for probe 1 labeling ([4]; 50 uM, in vitro) | isoTOP-ABPP ratio, lysine P51580_K32 [2] | isoTOP-ABPP ratio, lysine P61221_K191 ([3]; 50 uM_231_sol_in vitro) | isoTOP-ABPP ratio, lysine P61221_K478 ([3]; 50 uM_231_sol_in vitro) | Structure (SMILES) | other results |
| --- | --- | --- | --- | --- | --- | --- | --- | --- | --- | --- |
| 1.0 | 0.2 | 1.3 | 0.9 | 1.1 | 1.0 | – | – | – | O=C(CCc1cn(-c2ccccc2)nc1-c1ccccc1)Oc1c(F)c(F)c(F)c(F)c1F [fragment 19, Pentafluorophenyl 3-(1,3-diphenyl-1H-pyrazol-4-yl)propanoate] | – |
| 1.0 | 0.9 | 4.9 | 1.0 | – | – | – | – | – | O=C(Oc1c(F)c(F)c(F)c(F)c1F)c1cc(C(F)(F)F)cc(C(F)(F)F)c1 [fragment 21, Pentafluorophenyl 3,5-bis(trifluoromethyl)benzoate] | – |
| – | – | – | – | – | – | 9.5 | 1.7 | 1.4 | O=C(Oc1c(F)c(F)c(C(F)(F)F)c(F)c1F)c1cc(C(F)(F)F)cc(C(F)(F)F)c1 [fragment 47, 2,3,5,6-Tetrafluoro-4-(trifluoromethyl)phenyl 3,5-bis(trifluoromethyl)benzoate] | isoTOP-ABPP ratio, lysine P61289_K12 ([1]; 50 uM_231_sol_in vitro): 1.1; isoTOP-ABPP ratio, lysine P61289_K237 ([1]; 50 uM_231_sol_in vitro): 0.9 |
